The values below come from ChEMBL document CHEMBL1133877, “2-Amino-4,6-diarylpyridines as novel ligands for the estrogen receptor” (Bioorg Med Chem Lett, 2001).

The target in assay [1] is T1, Estrogen receptor beta (Homo sapiens, UniProt Q92731).
For assay [2], the target named is T2, Estrogen receptor (Homo sapiens, UniProt P03372).
T2 sequence (P03372 whole entry): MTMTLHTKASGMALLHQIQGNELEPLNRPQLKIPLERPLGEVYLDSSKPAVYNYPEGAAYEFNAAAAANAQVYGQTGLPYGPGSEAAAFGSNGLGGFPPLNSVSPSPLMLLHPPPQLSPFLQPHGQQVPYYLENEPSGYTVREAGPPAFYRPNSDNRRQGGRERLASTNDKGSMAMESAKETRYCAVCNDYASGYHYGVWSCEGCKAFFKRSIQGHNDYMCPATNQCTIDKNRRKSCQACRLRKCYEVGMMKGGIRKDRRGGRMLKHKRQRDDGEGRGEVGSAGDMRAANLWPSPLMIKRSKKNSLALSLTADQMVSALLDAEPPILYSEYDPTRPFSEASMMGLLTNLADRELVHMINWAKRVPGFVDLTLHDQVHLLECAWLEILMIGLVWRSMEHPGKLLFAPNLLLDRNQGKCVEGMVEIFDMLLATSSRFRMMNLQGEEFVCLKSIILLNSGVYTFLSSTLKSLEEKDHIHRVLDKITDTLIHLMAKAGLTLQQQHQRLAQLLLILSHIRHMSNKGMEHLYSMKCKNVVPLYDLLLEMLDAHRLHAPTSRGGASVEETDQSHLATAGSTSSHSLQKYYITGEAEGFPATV

Assay [3] has as its target T1, Estrogen receptor beta. In words: Displacement of [3H]17-beta-estradiol from Estrogen receptor beta of bacterial lysate by scintillation proximity assay (SPA) at 10e-5 M; Inactive.
The target of assay [4] is T2, Estrogen receptor. In words: Displacement of [3H]17-beta-estradiol from Estrogen receptor alpha of bacterial lysate by scintillation proximity assay (SPA) at 10e-5 M; Inactive.

T1 sequence (Q92731 whole entry): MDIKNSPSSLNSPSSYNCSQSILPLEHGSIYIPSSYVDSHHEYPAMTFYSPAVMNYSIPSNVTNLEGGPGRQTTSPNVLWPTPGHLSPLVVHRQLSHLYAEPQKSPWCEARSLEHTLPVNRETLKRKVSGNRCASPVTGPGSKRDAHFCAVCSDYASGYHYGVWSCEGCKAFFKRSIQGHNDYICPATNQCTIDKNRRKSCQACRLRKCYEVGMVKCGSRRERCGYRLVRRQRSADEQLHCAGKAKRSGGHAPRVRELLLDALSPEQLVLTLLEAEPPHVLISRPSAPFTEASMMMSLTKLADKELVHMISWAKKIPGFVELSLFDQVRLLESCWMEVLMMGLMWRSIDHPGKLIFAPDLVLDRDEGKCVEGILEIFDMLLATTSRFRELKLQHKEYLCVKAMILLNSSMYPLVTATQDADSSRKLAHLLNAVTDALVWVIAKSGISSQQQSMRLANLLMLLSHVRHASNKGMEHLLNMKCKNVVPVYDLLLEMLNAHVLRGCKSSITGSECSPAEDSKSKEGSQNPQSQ

What is called Ki is the dissociation constant of the complex between target and ligand, obtained from inhibition or displacement. A high value points to weaker binding. For the compound `CCCN(Cc1ccccn1)c1cc(-c2ccccc2)cc(-c2ccc(O)cc2)n1`, the Ki on Estrogen receptor beta [1] was determined as 0.71 µM; on Estrogen receptor [2] it was 0.18 µM.
As to `Cc1ccccc1-c1cc(-c2ccc(O)cc2)nc(N(C)CCc2ccccc2)c1`, the Ki amounted to 1.1 µM at Estrogen receptor beta [1] and 0.65 µM at Estrogen receptor [2].
For the compound `CCCN(Cc1ccccn1)c1cc(-c2ccccc2)cc(-c2ccc(O)cc2C)n1`, the inhibition constant (Ki) entry on Estrogen receptor beta [3] and on Estrogen receptor [4] was “Not Active” in each case.
`Cc1cc(-c2cc(-c3ccccc3)cc(N(C)CCN(C)C)n2)ccc1O`: the Ki entry on Estrogen receptor beta [3] and at Estrogen receptor [4] was “Not Active” throughout.
For the compound `CCCN(Cc1ccccn1)c1cc(-c2ccccc2)cc(-c2ccc(O)c(C)c2)n1`, the inhibition constant Ki is 0.33 µM on Estrogen receptor beta [1] and 0.07 µM on Estrogen receptor [2].
The matching figures for `CN(CCc1ccccc1)c1cc(-c2ccccc2)cc(-c2ccc(O)cc2)n1`: 1.05 µM and 0.49 µM.
The matching figures for `Cc1cc(-c2cc(-c3ccccc3)cc(N(CCc3ccccc3)Cc3ccccc3)n2)ccc1O`: 0.25 µM and 0.13 µM.
Take `Cc1cc(-c2cc(-c3ccccc3)cc(N(C)Cc3cccc4ccccc34)n2)ccc1O`: the inhibitory constant (Ki) at Estrogen receptor beta [1] was 1.41 µM; on Estrogen receptor [2], 0.45 µM.
In the case of `Cc1cc(-c2cc(-c3ccccc3)cc(N(C)CC(C)C)n2)ccc1O`, the inhibitory constant (Ki) on Estrogen receptor beta [1] stood at 0.66 µM; on Estrogen receptor [2], 0.21 µM.
For `CCCCN(C)c1cc(-c2ccccc2)cc(-c2ccc(O)c(C)c2)n1`, in that order: 0.79 µM and 0.66 µM.
As for `Cc1cc(-c2cc(-c3ccccc3)cc(N(C)CCc3ccccc3)n2)ccc1O`, the Ki at Estrogen receptor beta [1] turned out to be 0.68 µM; on Estrogen receptor [2], 0.16 µM.
The matching figures for `Cc1cc(-c2cc(-c3ccccc3)cc(N3CCC(Cc4ccccc4)CC3)n2)ccc1O`: 0.11 µM and 0.02 µM.
Take `CN(CCc1ccccc1)c1cc(-c2ccc(O)cc2)cc(-c2ccc(O)cc2)n1`: the Ki on Estrogen receptor beta [1] and at Estrogen receptor [2] was over 3 µM throughout.
As for `Cc1cc(-c2cc(-c3ccccc3)cc(N3CCCC3)n2)ccc1O`, the Ki result at Estrogen receptor beta [3] and on Estrogen receptor [4] was “Not Active” in each case.
As for `Cc1cc(-c2cc(-c3ccccc3)cc(N(C)Cc3ccccc3)n2)ccc1O`, the inhibition constant Ki is 1.12 µM at Estrogen receptor beta [1] and 0.38 µM on Estrogen receptor [2].
For `Cc1cc(-c2cc(-c3ccccc3)cc(N(C)CCc3ccccn3)n2)ccc1O`, in that order: over 3 µM and 1.26 µM.
Consider `CC(C)CN(C)c1cc(-c2ccccc2)cc(-c2ccc(O)cc2)n1`, for which the inhibitory constant (Ki) turned out to be 1.26 µM at Estrogen receptor beta [1] and 0.62 µM on Estrogen receptor [2].
Take `CCOCCN(CCOCC)c1cc(-c2ccccc2)cc(-c2ccc(O)c(C)c2)n1`: the values for the Ki on Estrogen receptor beta [1] and at Estrogen receptor [2] were 1.17 µM and 2 µM, respectively.
For `CCN(Cc1ccncc1)c1cc(-c2ccccc2)cc(-c2ccc(O)c(C)c2)n1`, the inhibition constant (Ki) at Estrogen receptor beta [1] amounted to 1 µM; at Estrogen receptor [2] it was 0.83 µM.
